Measurements from the supplement of paper PMC10307832.

Experiments:
Experiment in all cases: relative viability (nuclei count vs DMSO), 5 days (fraction); higher = more cells survive
ABC-1 = test system: ABC-1
Outline: (§1)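 Cells from lung cancer lines were seeded into 1536-well plates and, one day later, dosed by pin tool. Treatments were either a single drug or a fixed dose of an anchor drug with five library-drug doses (not always all listed) in √10 steps. After 5 days, nuclei were stained in a one-step fixation (final 0.05% Triton X-100, 1% formaldehyde, 1 ug/ml Hoechst) and counted on 4× images, and relative viability is the treated-to-vehicle nuclei ratio, as the median of duplicate plates.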

CAL-12T = test system: CAL-12T
Outline: as §1

ChaGo-K-1 = test system: ChaGo-K-1
Outline: as §1

HCC-366 = test system: HCC-366
Outline: as §1

HCC-78 = test system: HCC-78
Outline: as §1

LC-2-ad = test system: LC-2-ad
Outline: as §1

LOU-NH91 = test system: LOU-NH91
Outline: as §1

LU99A = test system: LU99A
Outline: as §1

NCI-H1651 = test system: NCI-H1651
Outline: as §1

NCI-H1734 = test system: NCI-H1734
Outline: as §1

NCI-H1755 = test system: NCI-H1755
Outline: as §1

NCI-H2087 = test system: NCI-H2087
Outline: as §1

NCI-H2228 = test system: NCI-H2228
Outline: as §1

NCI-H2405 = test system: NCI-H2405
Outline: as §1

NCI-H3122 = test system: NCI-H3122
Outline: as §1

NCI-H460 = test system: NCI-H460
Outline: as §1

PC-3 [JPC-3] = test system: PC-3 [JPC-3]
Outline: as §1

RERF-LC-KJ = test system: RERF-LC-KJ
Outline: as §1

UMC-11 = test system: UMC-11
Outline: as §1

Structure (SMILES): CC1(C)CCC(c2ccc(Cl)cc2)=C(CN2CCN(c3ccc(C(=O)NS(=O)(=O)c4ccc(N[C@H](CCN5CCOCC5)CSc5ccccc5)c(S(=O)(=O)C(F)(F)F)c4)cc3)CC2)C1 [Navitoclax] + CC(C)C[C@H](NC(=O)[C@H](Cc1ccccc1)NC(=O)c1cnccn1)B(O)O [Bortezomib] (partner 0.002 µM)
- relative viability (ABC-1; first compound 0.005 µM): 0.28
- relative viability (ABC-1; first compound 0.01581 µM): 0.286
- relative viability (ABC-1; first compound 0.05 µM): 0.265
- relative viability (ABC-1; first compound 0.1581 µM): 0.254
- relative viability (ABC-1; first compound 0.5 µM): 0.216
- relative viability (CAL-12T; first compound 0.005 µM): 0.887
- relative viability (CAL-12T; first compound 0.01581 µM): 0.711
- relative viability (CAL-12T; first compound 0.05 µM): 0.989
- relative viability (CAL-12T; first compound 0.1581 µM): 0.853
- relative viability (CAL-12T; first compound 0.5 µM): 0.941
- relative viability (ChaGo-K-1; first compound 0.005 µM): 0.907
- relative viability (ChaGo-K-1; first compound 0.01581 µM): 1.01
- relative viability (ChaGo-K-1; first compound 0.05 µM): 0.91
- relative viability (ChaGo-K-1; first compound 0.1581 µM): 0.959
- relative viability (ChaGo-K-1; first compound 0.5 µM): 1.04
- relative viability (HCC-366; first compound 0.005 µM): 1
- relative viability (HCC-366; first compound 0.01581 µM): 1.06
- relative viability (HCC-366; first compound 0.05 µM): 0.539
- relative viability (HCC-366; first compound 0.1581 µM): 0.974
- relative viability (HCC-366; first compound 0.5 µM): 1.04
- relative viability (HCC-78; first compound 0.005 µM): 0.582
- relative viability (HCC-78; first compound 0.01581 µM): 0.611
- relative viability (HCC-78; first compound 0.05 µM): 0.404
- relative viability (HCC-78; first compound 0.1581 µM): 0.45
- relative viability (HCC-78; first compound 0.5 µM): 0.469
- relative viability (LC-2-ad; first compound 0.005 µM): 0.988
- relative viability (LC-2-ad; first compound 0.01581 µM): 1.1
- relative viability (LC-2-ad; first compound 0.05 µM): 0.941
- relative viability (LC-2-ad; first compound 0.1581 µM): 1.01
- relative viability (LC-2-ad; first compound 0.5 µM): 1.06
- relative viability (LOU-NH91; first compound 0.005 µM): 0.418
- relative viability (LOU-NH91; first compound 0.01581 µM): 0.485
- relative viability (LOU-NH91; first compound 0.05 µM): 0.391
- relative viability (LOU-NH91; first compound 0.1581 µM): 0.449
- relative viability (LOU-NH91; first compound 0.5 µM): 0.339
- relative viability (LU99A; first compound 0.005 µM): 1.08
- relative viability (LU99A; first compound 0.01581 µM): 1.29
- relative viability (LU99A; first compound 0.05 µM): 0.857
- relative viability (LU99A; first compound 0.1581 µM): 1.15
- relative viability (LU99A; first compound 0.5 µM): 1.32
- relative viability (NCI-H1651; first compound 0.005 µM): 0.918
- relative viability (NCI-H1651; first compound 0.01581 µM): 0.916
- relative viability (NCI-H1651; first compound 0.05 µM): 0.423
- relative viability (NCI-H1651; first compound 0.1581 µM): 0.943
- relative viability (NCI-H1651; first compound 0.5 µM): 0.957
- relative viability (NCI-H1734; first compound 0.005 µM): 1.05
- relative viability (NCI-H1734; first compound 0.01581 µM): 1.12
- relative viability (NCI-H1734; first compound 0.1581 µM): 0.899
- relative viability (NCI-H1734; first compound 0.5 µM): 1.02
- relative viability (NCI-H1755; first compound 0.005 µM): 0.929
- relative viability (NCI-H1755; first compound 0.01581 µM): 1.01
- relative viability (NCI-H1755; first compound 0.05 µM): 0.723
- relative viability (NCI-H1755; first compound 0.1581 µM): 0.903
- relative viability (NCI-H1755; first compound 0.5 µM): 0.924
- relative viability (NCI-H2087; first compound 0.005 µM): 0.905
- relative viability (NCI-H2087; first compound 0.01581 µM): 0.979
- relative viability (NCI-H2087; first compound 0.05 µM): 0.504
- relative viability (NCI-H2087; first compound 0.1581 µM): 0.612
- relative viability (NCI-H2087; first compound 0.5 µM): 0.772
- relative viability (NCI-H2228; first compound 0.005 µM): 0.849
- relative viability (NCI-H2228; first compound 0.01581 µM): 1.33
- relative viability (NCI-H2228; first compound 0.05 µM): 0.726
- relative viability (NCI-H2228; first compound 0.1581 µM): 0.804
- relative viability (NCI-H2228; first compound 0.5 µM): 0.992
- relative viability (NCI-H2405; first compound 0.005 µM): 0.975
- relative viability (NCI-H2405; first compound 0.01581 µM): 1.09
- relative viability (NCI-H2405; first compound 0.05 µM): 0.816
- relative viability (NCI-H2405; first compound 0.1581 µM): 0.974
- relative viability (NCI-H2405; first compound 0.5 µM): 0.906
- relative viability (NCI-H3122; first compound 0.005 µM): 1.04
- relative viability (NCI-H3122; first compound 0.01581 µM): 1.02
- relative viability (NCI-H3122; first compound 0.05 µM): 1.04
- relative viability (NCI-H3122; first compound 0.1581 µM): 1.03
- relative viability (NCI-H3122; first compound 0.5 µM): 1.01
- relative viability (NCI-H460; first compound 0.005 µM): 1.1
- relative viability (NCI-H460; first compound 0.01581 µM): 1.16
- relative viability (NCI-H460; first compound 0.05 µM): 1.4
- relative viability (NCI-H460; first compound 0.1581 µM): 1.01
- relative viability (NCI-H460; first compound 0.5 µM): 0.983
- relative viability (PC-3 [JPC-3]; first compound 0.005 µM): 0.757
- relative viability (PC-3 [JPC-3]; first compound 0.01581 µM): 0.784
- relative viability (PC-3 [JPC-3]; first compound 0.05 µM): 0.732
- relative viability (PC-3 [JPC-3]; first compound 0.1581 µM): 0.874
- relative viability (PC-3 [JPC-3]; first compound 0.5 µM): 0.822
- relative viability (RERF-LC-KJ; first compound 0.005 µM): 1.07
- relative viability (RERF-LC-KJ; first compound 0.01581 µM): 1.14
- relative viability (RERF-LC-KJ; first compound 0.05 µM): 1
- relative viability (RERF-LC-KJ; first compound 0.1581 µM): 1.09
- relative viability (RERF-LC-KJ; first compound 0.5 µM): 1.35
- relative viability (UMC-11; first compound 0.005 µM): 0.629
- relative viability (UMC-11; first compound 0.01581 µM): 0.8
- relative viability (UMC-11; first compound 0.1581 µM): 0.661
- relative viability (UMC-11; first compound 0.5 µM): 0.311
